Measurements reported in patent US20210323950A1, “HERBICIDALLY ACTIVE BICYCLIC BENZOYLPYRAZOLES” (Bayer Aktiengesellschaft, priority 2018, published 2021).

What was measured:
Assay type in all cases: in vivo
Viola tricolor (VIOTR) [1] = assay: Pre-emergence herbicidal action against VIOTR; details: scored visually after about 3 weeks vs untreated controls
Procedure, shortened: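 Seeds were sown in pots and covered with soil. After ~3 weeks in the greenhouse, effect was scored visually versus untreated controls (100% = plants dead, 0% = like control).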

Stellaria media (STEME) [2] = assay: Post-emergence herbicidal action against STEME; details: 20 g/ha, post-emergence at one-leaf stage, rated visually after about 3 weeks vs untreated controls
Stellaria media (STEME) [3] = assay: Pre-emergence herbicidal action against STEME; details: scored visually after about 3 weeks vs untreated controls
Procedure, shortened: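 Weed seeds are sown in pots under soil, and WP or EC formulations are applied pre-emergence to the soil surface as an aqueous suspension or emulsion with 0.5% additive. After about 3 weeks in the greenhouse, effect is scored visually as % versus untreated controls (100% = plants dead, 0% = like control).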

Setaria viridis (SETVI) = assay: Post-emergence herbicidal action against SETVI; details: 20 g/ha, post-emergence at one-leaf stage, rated visually after about 3 weeks vs untreated controls
Procedure, shortened: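 Monocot and dicot weeds grown in sandy loam in greenhouse, sprayed post-emergence at one-leaf stage (2–3 weeks after sowing) with WP or EC formulations in water plus 0.5% additive at […] (converted). Visual rating after about 3 weeks versus untreated controls; 100% = plants dead, 0% = like control.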

Veronica persica (VERPE) [4] = assay: Pre-emergence herbicidal action against VERPE; details: scored visually after about 3 weeks vs untreated controls
Procedure, shortened: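 Weed seeds were sown in pots and covered with soil. Pots were kept in the greenhouse and damage was scored visually after about 3 weeks as percent versus untreated controls (100% = plants died).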

Viola tricolor (VIOTR) [5] = assay: Post-emergence herbicidal action against VIOTR; details: 20 g/ha, post-emergence at one-leaf stage, rated visually after about 3 weeks vs untreated controls
Description: (§1) VIOTR: Viola tricolor 2. Post-Emergence Herbicidal Action and Crop Plant Compatibility Seeds of monocotyledonous and dicotyledonous weeds and crop plants are placed in sandy loam in plastic or organic planting pots, covered with soil and cultivated in a greenhouse under controlled growth conditions. 2 to 3 weeks after sowing, the test plants are treated at the one-leaf stage. The compounds of the invention, formulated in the form of wettable powders (WP) or as emulsion concentrates (EC), are then sprayed onto the green parts of the plants as aqueous suspension or emulsion with addition of 0.5% additive at a water application rate of […] (converted). After the test plants had been kept in the greenhouse under optimum growth conditions for about 3 weeks, the activity of the preparations is rated visually in comparison to untreated controls. The tables below show the herbicidal activity of numerous compounds according to the invention against important harmful plants. For example, 100% activity=the plants have died, 0% activity=like control plants.

Veronica persica (VERPE) [6] = assay: Post-emergence herbicidal action against VERPE; details: 20 g/ha, post-emergence at one-leaf stage, rated visually after about 3 weeks vs untreated controls
Description: as §1, with “VERPE: Veronica persica” for “VIOTR: Viola tricolor”

Cn1ncc(C(=O)c2ccc(C(F)(F)F)c3c2OCS3)c1O [Example 1-13]
Pre-emergence action against VIOTR (Viola tricolor (VIOTR) [1]; 320 g/ha): 100%
Post-emergence action against STEME (Stellaria media (STEME) [2]): 100%
Pre-emergence action against STEME (Stellaria media (STEME) [3]; 320 g/ha): 100%
Post-emergence action against SETVI (Setaria viridis (SETVI)): 100%
Pre-emergence action against VERPE (Veronica persica (VERPE) [4]; 320 g/ha): 100%

Cn1ncc(C(=O)c2ccc(C(F)(F)F)c3c2OCCS3)c1O [Example 1-15]
Pre-emergence action against VIOTR (Viola tricolor (VIOTR) [1]; 80 g/ha): 100%
Post-emergence action against STEME (Stellaria media (STEME) [2]): 90%
Pre-emergence action against STEME (Stellaria media (STEME) [3]; 80 g/ha): 100%
Post-emergence action against SETVI (Setaria viridis (SETVI)): 80%
Post-emergence action against VIOTR (Viola tricolor (VIOTR) [5]): 80%
Pre-emergence action against VERPE (Veronica persica (VERPE) [4]; 80 g/ha): 90%

Cn1ncc(C(=O)c2ccc(C(F)(F)F)c3c2OC[S+]3[O-])c1O (stereo not shown) [Example 1-28]
Pre-emergence action against VIOTR (Viola tricolor (VIOTR) [1]; 320 g/ha): 100%
Post-emergence action against STEME (Stellaria media (STEME) [2]): 90%
Pre-emergence action against STEME (Stellaria media (STEME) [3]; 320 g/ha): 100%
Post-emergence action against VERPE (Veronica persica (VERPE) [6]): 90%
Post-emergence action against SETVI (Setaria viridis (SETVI)): 90%
Post-emergence action against VIOTR (Viola tricolor (VIOTR) [5]): 90%
Pre-emergence action against VERPE (Veronica persica (VERPE) [4]; 320 g/ha): 100%

Cn1ncc(C(=O)c2ccc(C(F)(F)F)c3c2OCC[S+]3[O-])c1O (stereo not shown) [Example 1-30]
Pre-emergence action against VIOTR (Viola tricolor (VIOTR) [1]; 80 g/ha): 100%
Pre-emergence action against STEME (Stellaria media (STEME) [3]; 80 g/ha): 100%
Post-emergence action against SETVI (Setaria viridis (SETVI)): 90%
Post-emergence action against VIOTR (Viola tricolor (VIOTR) [5]): 90%

CCn1ncc(C(=O)c2ccc(C(F)(F)F)c3c2OCC[S+]3[O-])c1O (stereo not shown) [Example 1-35]
Pre-emergence action against VIOTR (Viola tricolor (VIOTR) [1]; 80 g/ha): 100%
Post-emergence action against STEME (Stellaria media (STEME) [2]): 90%
Pre-emergence action against STEME (Stellaria media (STEME) [3]; 80 g/ha): 100%
Post-emergence action against SETVI (Setaria viridis (SETVI)): 100%
Post-emergence action against VIOTR (Viola tricolor (VIOTR) [5]): 100%

Cc1nn(C)c(O)c1C(=O)c1ccc(C(F)(F)F)c2c1OCC[S+]2[O-] (stereo not shown) [Example 1-40]
Post-emergence action against STEME (Stellaria media (STEME) [2]): 100%
Pre-emergence action against STEME (Stellaria media (STEME) [3]; 80 g/ha): 100%
Post-emergence action against SETVI (Setaria viridis (SETVI)): 80%
Post-emergence action against VIOTR (Viola tricolor (VIOTR) [5]): 80%

Cn1ncc(C(=O)c2ccc(C(F)(F)F)c3c2OCCS3(=O)=O)c1O [Example 1-45]
Pre-emergence action against VIOTR (Viola tricolor (VIOTR) [1]; 80 g/ha): 100%
Post-emergence action against STEME (Stellaria media (STEME) [2]): 100%
Pre-emergence action against STEME (Stellaria media (STEME) [3]; 80 g/ha): 100%
Post-emergence action against VERPE (Veronica persica (VERPE) [6]): 90%
Post-emergence action against VIOTR (Viola tricolor (VIOTR) [5]): 90%
Pre-emergence action against VERPE (Veronica persica (VERPE) [4]; 80 g/ha): 100%

CCn1ncc(C(=O)c2ccc(C(F)(F)F)c3c2OCCS3(=O)=O)c1O [Example 1-50]
Post-emergence action against STEME (Stellaria media (STEME) [2]): 80%
Pre-emergence action against STEME (Stellaria media (STEME) [3]; 80 g/ha): 100%
Post-emergence action against SETVI (Setaria viridis (SETVI)): 80%
Pre-emergence action against VERPE (Veronica persica (VERPE) [4]; 80 g/ha): 90%

Cc1nn(C)c(O)c1C(=O)c1ccc(C(F)(F)F)c2c1OCCS2(=O)=O [Example 1-55]
Pre-emergence action against VIOTR (Viola tricolor (VIOTR) [1]; 80 g/ha): 90%
Post-emergence action against STEME (Stellaria media (STEME) [2]): 90%
Pre-emergence action against STEME (Stellaria media (STEME) [3]; 80 g/ha): 100%
Post-emergence action against VIOTR (Viola tricolor (VIOTR) [5]): 80%
Pre-emergence action against VERPE (Veronica persica (VERPE) [4]; 80 g/ha): 90%

Cn1nc(C2CC2)c(C(=O)c2ccc(C(F)(F)F)c3c2OCC[S+]3[O-])c1O (stereo not shown) [Example 1-116]
Pre-emergence action against VIOTR (Viola tricolor (VIOTR) [1]; 80 g/ha): 100%
Post-emergence action against STEME (Stellaria media (STEME) [2]): 100%
Pre-emergence action against STEME (Stellaria media (STEME) [3]; 80 g/ha): 100%
Post-emergence action against SETVI (Setaria viridis (SETVI)): 90%
Pre-emergence action against VERPE (Veronica persica (VERPE) [4]; 80 g/ha): 80%

Cn1ncc(C(=O)c2ccc(C(F)(F)C(F)(F)F)c3c2OCS3)c1O [Example 1-128]
Pre-emergence action against VIOTR (Viola tricolor (VIOTR) [1]; 80 g/ha): 100%
Post-emergence action against STEME (Stellaria media (STEME) [2]): 80%
Pre-emergence action against STEME (Stellaria media (STEME) [3]; 80 g/ha): 100%
Post-emergence action against SETVI (Setaria viridis (SETVI)): 90%
